Tests used:
[1] = tested on: gastric corpus mucosa cells; assay: MTT: Cell Damaging and Protecting Effect Test; type: cell-based, male Japanese White rabbit; conditions: rabbit gastric mucosa cells, 10^-4 M, 4 hours; smaller value is better; 100 µM
Excerpt: MTT: Cell Damaging and Protecting Effect Test
It is confirmed that there is no toxicity in cell level. Those having toxicity in cell level are inappropriate as an anti-ulcer drug.
A male Japanese White rabbit (2.5 to 3 kg) was anesthetized to death by Nembutal™ and, immediately thereafter, its stomach was removed. The greater curvature of the stomach was incised so as to remove the stomach contents therefrom. After the mucosal surface was washed with HBSS (Hank's Balanced Salt Solution), the stomach in ice-cooled HBSS was transferred to a laboratory. Then, after the pyloric antrum was removed, the gastric corpus mucosa was separated by a spatula and then minced into 2 to 3 mm pieces in BME (Basal Medium Eagle). Thereafter, these pieces were shaken at 120 to 130 cycles/minute for 15 minutes at 37° C. in BME 60 ml containing 280 U/ml of dispase and 30 to 50 U/mil of collagenase. Here, the concentration of collagenase was appropriately changed for each lot in view of the state of cells. The pieces were washed twice with EBSS (Earle's Balanced Salt Solution) containing 1 mM of EDTA and then shaken in MEM (Minimum Essential Medium) containing 1 mM of EDTA at 37° C. for 5 minutes. Subsequently, they were shaken in the dispase and collagenase having the same concentrations as those mentioned above for 15 minutes so as to remove the supernatant and then further shaken at 37° C. for 50 to 60 minutes at 120 to 130 cycles/minute. Then, after being washed twice with HBSS, Ham F12 containing 2% of Ultrocer G™ was used to attain the concentration of 1×10^6 cells/ml. Thus formed suspension was dispensed in each well of a 96-well plate by 200 μl. The plate was incubated in the atmosphere composed of 5% CO2 and 95% air at 37° C. for three days so as to attain a confluent state and then subjected to MTT assay.
The sample compound was dissolved in DMSO so as to attain a concentration of 10^-2 M and then diluted with HBSS containing 2% of Ultrocer G™ so as to attain a final concentration of 10^-4 M. To each group, which 8 wells were used for, 10 μl of MTT reagent was added immediately after 100 μl of the medium in each well was exchanged for same volume of the resulting solution of the sample compound. After being incubated in an atmosphere composed of 5% CO2 and 95% air at 37° C. for 4 hours, thus formed solution was centrifuged and then its supernatant was discarded. Subsequently, 100 μl of 100% ethanol was added to the residue so as to dissolve MTT formazan. Then, the absorbance (OD: 570 to 630) was measured by a microplate reader. This method utilizes a phenomenon in which MTT is changed to MTT formazan only by mitochondria of living cells so as to change color.
The cell damaging or cell protecting effect of the sample compound at the final concentration of 10^-4 M was expressed as cell damaging rate (%) as follows:
cell damaging rate (%)={1-(absorbance in sample group/absorbance in control group)}×100
Accordingly, the smaller value is better in the cell damaging rate.

[2] = tested on: histamine-stimulated gastric acid secretion (pylorus-ligated rats); assay: VOL, TAO: Acid Secretion Inhibition Test in vivo; design: species or system Male Crj:Donryu rats; conditions: rat, 100 mg/kg orally, histamine 30 mg/kg s.c.
Procedure: VOL, TAO: Acid Secretion Inhibition Test in vivo
Inhibitory effect on acid secretion in vivo is confirmed.
Male Crj:Donryu rats (7-week-old) were fasted overnight but allowed free access to water. In each group, 8 to 10 of these rats were used under urethane anesthesia (1.25 g/kg). The sample compound dissolved or suspended in an aqueous solution of 0.5% sodium carboxymethylcellulose or 0.05% Tween 80 was orally administered (100 mg/10 ml/kg). 30 minutes later, the abdomen of each was incised and the pylorus was ligated. 30 minutes after the ligation, 30 mg/kg of histamine dissolved in physiological saline was subcutaneously administered and, 3 hours thereafter, the rat was sacrificed with carbon dioxide. Immediately thereafter, each stomach was removed and the gastric contents were collected and each volume was determined. The total acid output was determined by titration of the gastric juice with 0.1N NaOH.
With respect to the gastric juice volume (VOL) and the total acid output (TAO), the effects obtained when 100 mg/kg of the sample compound had been administered were expressed as their respective inhibitory rates (%) as follows:
each inhibitory rate (%) {1-(value in sample group/value in control group)}×100

Structure (SMILES)	MTT: cell damaging rate [1] [%]	TAO: total acid output inhibitory rate [2] [%]	VOL: gastric juice volume inhibitory rate [2] [%]
CC(C)c1ccc(C(=O)Nc2nnc(SCCN(C(C)C)C(C)C)s2)cc1 [Example 2, 2-(4-isopropylbenzoyl)amino-5-diisopropylaminoethylthio-1,3,4-thiadiazole]	-77	–	–
CCN(CC)CCSc1nnc(NC(=O)c2ccc(OC/C=C(\C)CCC=C(C)C)cc2)s1 [Example 10, 2-(4-geranyloxybenzoyl)amino-5-diethylaminoethylthio-1,3,4-thiadiazole]	–	44	36
CCSc1nnc(NC(=O)c2ccc(OC/C=C(\C)CCC=C(C)C)cc2)s1 [Example 15, 2-(4-geranyloxybenzoyl)amino-5-ethylthio-1,3,4-thiadiazole]	–	19	10

Source: patent publication US5912258A, “Thiadiazoleamide derivative and anti-ulcer drug” (Shiseido Co., Ltd., priority 1998, dated 1999)
